One series has as its system B cells in human blood. Description: Inhibition of B cell activation in whole blood measured by CD69 expression. Type of series: cell-based. The settings on record: CD69-positive, CD20-positive cells after anti-IgM stimulation, human whole blood, 20 hours, read-out: Human Whole Blood. The method, boiled down:
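Heparinised human whole blood was preincubated with compound (nine-point, three-fold dilutions) for 30 min at 37 °C. It was then stimulated with 50 μg/ml goat F(ab′)2 anti-human IgM for 20 hours. CD20/CD69 staining, red-cell lysis and flow cytometry gave percent CD69-positive cells, from which IC50 values were calculated.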

This passage reports IC50 and melting point results from patent US8481540B2, “Inhibitors of bruton's tyrosine kinase” (Hoffmann-La Roche Inc., priority 2010, dated 2013).

The term melting point denotes the temperature of the solid-liquid transition.

The structures appear in SMILES notation.

As for `Cn1nc(-c2cccc(-n3ncc4cc(C(C)(C)C)cc(F)c4c3=O)c2CO)cc(Nc2cnc(CNC3CCC3)cn2)c1=O` [I-35, 6-tert-Butyl-2-{3-[5-(5-cyclobutylaminomethyl-pyrazin-2-ylamino)-1-methyl-6-oxo-1,6-dihydro-pyridazin-3-yl]-2-hydroxymethyl-phenyl}-8-fluoro-2H-phthalazin-1-one], the melting point was 163 to 167 °C. In the series with B cells in human blood, the IC50 was determined as 0.074 µM.
Taken in the same sequence, the figures for `CN1CCN(Cc2cnc(Nc3cc(-c4cccc(-n5ncc6cc(C(C)(C)C)cc(F)c6c5=O)c4CO)nn(C)c3=O)cn2)CC1` [I-37, 6-tert-Butyl-8-fluoro-2-(2-hydroxymethyl-3-{1-methyl-5-[5-(4-methyl-piperazin-1-ylmethyl)-pyrazin-2-ylamino]-6-oxo-1,6-dihydro-pyridazin-3-yl}-phenyl)-2H-phthalazin-1-one] were 215 to 218 °C and 0.084 µM.
Taken in the same sequence, the figures for `Cn1nc(-c2cccc(-n3ncc4cc(C(C)(C)C)cc(F)c4c3=O)c2CO)cc(Nc2cc3n(n2)CCN(C2COC2)C3)c1=O` [I-60] were 180 to 185 °C and 0.004 µM.
Taken in the same sequence, the figures for `Cn1nc(-c2cccc(-n3ncc4cc(C(C)(C)C)cc(F)c4c3=O)c2CO)cc(Nc2ccn(C[C@@H](O)CO)n2)c1=O` [I-68, 6-tert-Butyl-2-(3-{5-[1-((R)-2,3-dihydroxy-propyl)-1H-pyrazol-3-ylamino]-1-methyl-6-oxo-1,6-dihydro-pyridazin-3-yl}-2-hydroxymethyl-phenyl)-8-fluoro-2H-phthalazin-1-one] were 245 to 250 °C and 0.061 µM.
On to `CN1[C@@H]2CC[C@H]1CN(Cc1ccc(Nc3cc(-c4cccc(-n5ncc6cc(C(C)(C)C)cc(F)c6c5=O)c4CO)nn(C)c3=O)nc1)C2` [I-5, 6-tert-Butyl-8-fluoro-2-(2-hydroxymethyl-3-{1-methyl-5-[5-(8-methyl-3,8-diaza-bicyclo[3.2.1]oct-3-ylmethyl)-pyridin-2-ylamino]-6-oxo-1,6-dihydro-pyridazin-3-yl}-phenyl)-2H-phthalazin-1-one], for which the melting point fell in the range of 162 to 165 °C. Also, in the series with B cells in human blood, the IC50 was 0.025 µM.
Take `CN1CCC(c2ccc(Nc3cc(-c4cccc(-n5ncc6cc(C(C)(C)C)cc(F)c6c5=O)c4CO)nn(C)c3=O)nn2)CC1` [I-40, 6-tert-Butyl-8-fluoro-2-(2-hydroxymethyl-3-{1-methyl-5-[6-(1-methyl-piperidin-4-yl)-pyridazin-3-ylamino]-6-oxo-1,6-dihydro-pyridazin-3-yl}-phenyl)-2H-phthalazin-1-one]: the melting point was in the range of 260 to 265 °C. Also, the IC50 in the series on B cells in human blood was 0.044 µM.
As to `CCNC(C)(C)c1ccc(Nc2cc(-c3cccc(-n4ncc5cc(C(C)(C)C)cc(F)c5c4=O)c3CO)nn(C)c2=O)nc1` [I-1, 6-tert-butyl-2-(3-{5-[5-(1-ethylamino-1-methyl-ethyl)-pyridin-2-ylamino]-1-methyl-6-oxo-1,6-dihydro-pyridazin-3-yl}-2-hydroxymethyl-phenyl)-8-fluoro-2H-phthalazin-1-one], the melting point fell in the range of 229 to 233 °C. Moreover, the IC50 with B cells in human blood turned out to be 0.019 µM.
The corresponding values for `CN(C)CC(C)(C)Oc1ccc(Nc2cc(-c3cccc(-n4ncc5cc(C(C)(C)C)cc(F)c5c4=O)c3CO)nn(C)c2=O)nc1` [I-6, 6-tert-Butyl-2-(3-{5-[5-(2-dimethylamino-1,1-dimethyl-ethoxy)-pyridin-2-ylamino]-1-methyl-6-oxo-1,6-dihydro-pyridazin-3-yl}-2-hydroxymethyl-phenyl)-8-fluoro-2H-phthalazin-1-one] are 136 to 144 °C and 0.031 µM.
The corresponding values for `CN1CCn2nc(Nc3cc(-c4cccc(-n5ncc6cc(C(C)(C)C)cc(F)c6c5=O)c4CO)nn(C)c3=O)cc2C1` [I-59] are 188 to 193 °C and 0.005 µM.
The corresponding values for `Cn1nc(-c2cccc(-n3ncc4cc(C(C)(C)C)cc(F)c4c3=O)c2CO)cc(Nc2ccc(CN3C[C@@H]4C[C@H]3CN4)cn2)c1=O` [I-84, 6-tert-Butyl-2-[3-(5-{5-[(1S,4S)-1-(2,5-diaza-bicyclo[2.2.1]hept-2-yl)methyl]-pyridin-2-ylamino}-1-methyl-6-oxo-1,6-dihydro-pyridazin-3-yl)-2-hydroxymethyl-phenyl]-8-fluoro-2H-phthalazin-1-one] are more than 250 °C and 0.242 µM.
Regarding `CN(C)CC(C)(C)Oc1ccc(Nc2cc(-c3cccc(-n4ncc5cc(C(C)(C)C)cc(F)c5c4=O)c3CO)nn(C)c2=O)nn1` [I-39, 6-tert-Butyl-2-(3-{5-[6-(2-dimethylamino-1,1-dimethyl-ethoxy)-pyridazin-3-ylamino]-1-methyl-6-oxo-1,6-dihydro-pyridazin-3-yl}-2-hydroxymethyl-phenyl)-8-fluoro-2H-phthalazin-1-one], the melting point was 140 to 145 °C. Also, in the series with B cells in human blood, the IC50 worked out at 0.021 µM.
The corresponding values for `CN1C[C@@H]2C[C@H]1CN2Cc1ccc(Nc2cc(-c3cccc(-n4ncc5cc(C(C)(C)C)cc(F)c5c4=O)c3CO)nn(C)c2=O)nc1` [I-43, 6-tert-Butyl-8-fluoro-2-(2-hydroxymethyl-3-{1-methyl-5-[5-((1S,4S)-5-methyl-2,5-diaza-bicyclo[2.2.1]hept-2-ylmethyl)-pyridin-2-ylamino]-6-oxo-1,6-dihydro-pyridazin-3-yl}-phenyl)-2H-phthalazin-1-one] are 183 to 186 °C and 0.041 µM.
Consider `Cn1nc(-c2cccc(-n3ncc4cc(C(C)(C)C)cc(F)c4c3=O)c2CO)cc(Nc2ccn(CC(C)(C)O)n2)c1=O` [I-70, 6-tert-Butyl-8-fluoro-2-(2-hydroxymethyl-3-{5-[1-(2-hydroxy-2-methyl-propyl)-1H-pyrazol-3-ylamino]-1-methyl-6-oxo-1,6-dihydro-pyridazin-3-yl}-phenyl)-2H-phthalazin-1-one], for which the melting point lay in the range of 165 to 170 °C. In addition, the IC50 with B cells in human blood amounted to 0.117 µM.
Compound `CN1CCN(c2cnc(Nc3cc(-c4cccc(-n5ncc6cc(C(C)(C)C)cc(F)c6c5=O)c4CO)nn(C)c3=O)cn2)CC1` [I-34, 6-tert-Butyl-8-fluoro-2-{2-hydroxymethyl-3-[1-methyl-5-(4-methyl-3,4,5,6-tetrahydro-2H-[1,2′]bipyrazinyl-5′-ylamino)-6-oxo-1,6-dihydro-pyridazin-3-yl]-phenyl}-2H-phthalazin-1-one] registered a melting point of 235 to 240 °C. The IC50 in the series on B cells in human blood is 0.125 µM.
The corresponding values for `Cn1nc(-c2cccc(-n3ncc4cc(C(C)(C)C)cc(F)c4c3=O)c2CO)cc(Nc2ccc(CN3CCC3)cn2)c1=O` [I-7, 2-{3-[5-(5-Azetidin-1-ylmethyl-pyridin-2-ylamino)-1-methyl-6-oxo-1,6-dihydro-pyridazin-3-yl]-2-hydroxymethyl-phenyl}-6-tert-butyl-8-fluoro-2H-phthalazin-1-one] are 160 to 163 °C and 0.02 µM.
The corresponding values for `COCCNCc1ccc(Nc2cc(-c3cccc(-n4ncc5cc(C(C)(C)C)cc(F)c5c4=O)c3CO)nn(C)c2=O)nc1` [I-42, 6-tert-Butyl-8-fluoro-2-[2-hydroxymethyl-3-(5-{5-[(2-methoxy-ethylamino)-methyl]-pyridin-2-ylamino}-1-methyl-6-oxo-1,6-dihydro-pyridazin-3-yl)-phenyl]-2H-phthalazin-1-one] are 108 to 110 °C and 0.047 µM.
Taken in the same sequence, the figures for `COC1CN(Cc2ccc(Nc3cc(-c4cccc(-n5ncc6cc(C(C)(C)C)cc(F)c6c5=O)c4CO)nn(C)c3=O)nc2)C1` [I-4, 6-tert-Butyl-8-fluoro-2-(2-hydroxymethyl-3-{5-[5-(3-methoxy-azetidin-1-ylmethyl)-pyridin-2-ylamino]-1-methyl-6-oxo-1,6-dihydro-pyridazin-3-yl}-phenyl)-2H-phthalazin-1-one] were 140 to 142 °C and 0.122 µM.
